According to patent US20050147698A1, “Co-beadlet of dha and rosemary and methods of use” (Alcon, Inc., priority 2003, published 2005):

Tested on: retinas
Assay: protection of retinas from acute light-induced toxicity
Format: in vivo
Settings: no data or method given

Q: With Vitamin E as the substance, how does the “protection of retinas from acute light-induced toxicity” value read?
A: effective in protecting retinas from acute light-induced toxicity
